Where “and” joins values, the source holds several entries; their conditions need not be identical. Equal values may be shown once.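 Where inhibition never reached the appropriate level, the endpoint shown equals the highest concentration tested. Otherwise, values were interpolated linearly from a five-concentration, 48-hour dose response in 96-well plates. GI50 is the concentration that inhibits growth by half. Definition used: TGI = concentration required for complete inhibition of growth.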
What was measured:
Test in all cases: NCI tumour cell line growth inhibition, 48 h
[1] = test system: DLD-1 colon
[2] = test system: MDA-N
[3] = test system: RXF-631 renal
[4] = test system: M19-MEL melanoma
[5] = test system: KM20L2 colon
[6] = test system: HOP-18 NSCLC
[7] = test system: LXFL 529 NSCLC
[8] = test system: DMS 114 small cell lung
[9] = test system: XF 498 CNS
[10] = test system: P388/ADR leukemia
[11] = test system: P388 leukemia

| Compound | TGI [1] | TGI [2] | TGI [3] | TGI [4] | TGI [5] | TGI [6] | TGI [7] | TGI [8] | further results |
| --- | --- | --- | --- | --- | --- | --- | --- | --- | --- |
| C/C([O-])=C1\Cc2ccccc2C1=O.C/C([O-])=C1\Cc2ccccc2C1=O.CC[O-].CC[O-].[Ti+4] | > 100 µM | 42.3 µM | 29.1 µM | 34.8 µM | > 100 µM | 80 µM | 35.5 µM | 37.4 µM | GI50 [1]: 18.7 µM; GI50 [2]: 17.1 µM; GI50 [3]: 6.96 µM; GI50 [4]: 16.8 µM; GI50 [5]: 29.2 µM; GI50 [6]: 32.5 µM; GI50 [7]: 12.3 µM; GI50 [8]: 18.7 µM |
| CC1=C(C(=O)Nc2cccc(Cl)c2)C(c2ccc([N+](=O)[O-])cc2)C(C(=O)Nc2cccc(Cl)c2)=C(C)N1 | > 100 µM |  | 57.6 µM |  | 54.4 µM | 56.7 µM | > 100 µM | > 100 µM |  |
| O=C1C=C[C@@]23C[C@@H](Nc4c(O)c5c6c(c42)=NCCC=6C=N5)SC3=C1 | 3.22 µM | 3.1 µM |  | 3.24 µM | 10.7 µM | 28.1 µM | 3.24 µM |  | GI50 [1]: 1.74 µM; GI50 [4]: 1.71 µM; GI50 [9]: 2.34 µM; TGI [9]: 4.95 µM; GI50 [6]: 14.8 µM |
| CC(/C(=N/NC(=O)C(N)=O)c1c(Cl)ccc(Cl)c1O)C1(O)C(=O)Nc2ccccc21 (configuration not stated) | > 100 µM |  | > 100 µM | > 100 µM | > 100 µM | > 100 µM | > 100 µM | > 100 µM |  |
| CN(CC(=O)O)c1ccc(/C=C/c2ccnc3ccccc23)cc1 |  | 53.9 µM |  |  |  |  |  |  |  |
| C=C1C(=O)OC2C1CC[C@H](C)C13OC(=O)CC1[C@@]23C (some centres not stated) | > 100 µM |  |  | > 100 µM |  |  | > 100 µM | > 100 µM |  |
| COC1(O)C(=O)c2ccccc2OC1(OC)c1ccccc1 (configuration not stated) |  | > 100 µM |  |  |  |  |  |  |  |
| O=c1c2cccc3cccc(c4oc5c6cccc7cccc(c(=O)c5c14)c76)c32 | 30.2 µM |  | 19.3 µM | 16.9 µM | 26.2 µM | 24.8 µM | 15.8 µM | 18.5 µM |  |
| O=C1/C(=C/c2ccccc2F)CNC/C1=C\c1ccccc1F |  | 1.71 µM |  |  |  |  |  |  | GI50 [2]: 0.485 µM |
| OCC(O)C(OC1OC(CO)C(O)C(O)C1O)c1nn(-c2ccccc2)c2nc3cc(Cl)c(Cl)cc3cc12 (configuration not stated) | > 100 µM |  | > 100 µM | > 100 µM | > 100 µM |  | > 100 µM |  | TGI [9]: > 100 µM |
| COC(C(=O)C(O)C(C)O)C1Cc2cc3cc(OC4CC(OC(C)=O)C(OC5CC(O)C(OC)C(C)O5)C(C)O4)cc(O)c3c(O)c2C(=O)C1OC1CC(OC2CC(OC3CC(C)(O)C(OC(=O)C(C)C)C(C)O3)C(O)C(C)O2)C(O)C(C)O1 (configuration not stated) | 8.61 µM and > 27.3 µM | 0.252 µM |  |  |  |  | 0.124 µM | 0.084 µM and 0.017 µM and 0.0165 µM | GI50 [1]: 0.298 µM and 0.0325 µM; TGI [10]: 75 µM and > 100 µM; GI50 [9]: 0.00637 µM and 0.00134 µM; TGI [11]: 0.237 µM and 0.0293 µM; GI50 [7]: 0.0174 µM |
| COCC1N=C(c2cc(OC)c(OC)c(OC)c2-c2cc3c(cc2C2OCCCO2)OCO3)O[C@H]1c1ccccc1 (some centres not stated) | > 100 µM |  |  | > 100 µM | > 100 µM |  |  | > 100 µM |  |
| Nc1ccn(CCO)c(=O)n1 | > 100 µM |  |  | > 100 µM | > 100 µM | > 100 µM | > 100 µM | > 100 µM |  |
| O=C1OC(CC(=O)c2ccc(Cl)cc2Cl)C(Cl)=C1Cl (configuration not stated) | 54.5 µM |  | > 75.5 µM | 48.8 µM | 42 µM | > 100 µM | 32.1 µM | > 53.1 µM | TGI [9]: 45.6 µM |
| c1cc(CCN2CCCCC2)ccn1 |  | > 100 µM |  |  |  |  |  |  |  |
| CCCCCCCCCCC(O)[C@H]1CCC(C2CC[C@H]([C@H](O)CCCCCCCCCCC(O)CC3=CC(C)OC3=O)O2)O1 (some centres not stated) | > 100 µM |  | 8.13 µM | 8.92 µM | 19.4 µM |  | 9.79 µM | 3.01 µM |  |
| Fc1cccc2cc3ccc4cccc5ccc(c12)c3c45 | > 100 µM |  | > 100 µM | > 100 µM | > 100 µM | 12.8 µM | > 100 µM | > 100 µM | TGI [9]: > 100 µM |
| CCCCCCCCC(=O)N(C)C1C2CN3CCC(O2)C13 (configuration not stated) | > 100 µM |  |  | > 100 µM | > 100 µM | > 100 µM | > 100 µM | > 100 µM |  |
| Cc1ccc2c(c1C)-c1c(ccc(C)c1C)C(=O)C2=O |  | 0.348 µM |  |  |  |  |  |  |  |
| Cc1nn(-c2ccccc2)c2c1CC(=O)Nc1ccccc1-2 |  | 0.47 µM |  |  |  |  |  |  |  |
| O=C1Nc2ccccc2C1Cc1ccc([N+](=O)[O-])cc1 (configuration not stated) |  | > 100 µM |  |  |  |  |  |  |  |
